Assay [1] relates to formalin-induced pain behavior. Briefly: Mouse formalin test. The format is in vivo. Conditions: for decrease of pain behavior in the formalin test: 60 min before formalin. The procedure: Formalin Test: For 4 days prior to testing, mice were acclimated for 2 hours every day on the test platform. On the day of study, mice were placed for 1 hour on the test platform, and subsequently were administered 10 μl of 2% formalin in the plantar surface of the left paw. The time mice spent either licking or lifting the injected paw was recorded over 2-minute periods at 5-minute intervals for 50 minutes. […] Phase 1 (0-10 min post-injection) is considered to reflect acute pain, whereas phase 2 (10-50 min post-injection) reflects chronic, inflammatory pain. The formalin test: a quantitative study of the analgesic effects of morphine, meperidine, and brain stem stimulation in rats and cats. Pain. December 1977;4(2):161-74) Intragastrical administration by gavage: Compound and vehicle were given via a 18 G Gavage needle at 0.2 ml/30 g of the mouse body weight. Compounds: A CCR-2 antagonist having the formula: [drawing 1085] (CCR-2 Antagonist “A”) was tested in the formalin test and the mouse nerve injury model. A second CCR-2 antagonist: [drawing 1086] (CCR-2 Antagonist “B”) was tested in the formalin test only. Both compounds were diluted in 0.5% methylcellulose and were dosed p.o. at a volume of 0.2 ml per 30 g body-weight. For the formalin test, compounds were administered 60 min before the formalin injection. For the nerve injury model, Compound A was tested 4-5 days after surgery. A third CCR-2 antagonist having the formula: [drawing 1087] (CCR-2 Antagonist “C”) was tested in the rat nerve model, MCP-1 co-administration model, the carrageenan model and the CFA model. The compound was dissolved into ethanol/H2O=9/95 prior to testing.

Assay [2] has as its system mechanical allodynia induced by MCP-1. Briefly: Intrathecal MCP-1 injection and co-injection with CCR-2 antagonist, 50% paw withdrawal threshold. The format is in vivo. Conditions: rat. The procedure:
Intrathecal administration by intrathecal catheter: Using Hamilton syringe to inject each rat: 5 μl compound or vehicle, 1 μl air and 9 μl vehicle. Intrathecal catheterization. After shaving the back of the head and neck, the rats were placed in a stereotaxic headholder with the head flexed forward. A 8-cm saline filled polyethylene tube (PE5) was placed into the subarachnoid space through a small puncture and threaded caudally so that the caudal tip rested on the rostral edge of the lumbar enlargement. The rats were allowed to recover for a minimum of 2-3 days prior to further study. […] Animals with impaired motor function (e.g. hind limb paralysis) were euthanized. Compounds: A CCR-2 antagonist having the formula: [drawing 1085] (CCR-2 Antagonist “A”) was tested in the formalin test and the mouse nerve injury model. A second CCR-2 antagonist: [drawing 1086] (CCR-2 Antagonist “B”) was tested in the formalin test only. Both compounds were diluted in 0.5% methylcellulose and were dosed p.o. at a volume of 0.2 ml per 30 g body-weight. For the formalin test, compounds were administered 60 min before the formalin injection. For the nerve injury model, Compound A was tested 4-5 days after surgery. A third CCR-2 antagonist having the formula: [drawing 1087] […] At Day 0, 1, 3, 4, 7, 10, 11, 15, 18 and 21 post dosing, 50% paw withdrawal threshold was determined.

Assay [3] relates to mechanical allodynia after spinal nerve ligation. Briefly: L5-L6 spinal nerve ligation (Chung) model, 50% paw withdrawal threshold / % MPE. In kind it is in vivo, Sprague-Dawley rat. The note with it: rat. The procedure:
Intragastrical administration by gavage: Compound and vehicle were given via a 15 G Gavage needle at 1 ml/100 g of the rat body weight. L5-L6 Spinal Nerve Ligation (Chung): Male Sprague-Dawley rats (Taconic) were anesthetized with 2% gaseous isofluorane (For induction 3-5% and O2 […], for maintenance 2-3% and O2 […]). Following dorsal skin incision and muscle separation, the posterior interarticular traverse process of L/S1 was exposed and carefully removed with a mircro Rongeur. The L5 and L6 spinal nerves were tightly ligated by a square knot with 6-0 silk thread. The muscles were closed with 4-0 absorbable sutures and the skin was closed with wound clips. […] Animals were pre-tested and non-sensitive rats (50% paw withdrawal threshold above 3 g) were also excluded from compound testing. The results were expressed either as 50% paw withdrawal threshold, or in % maximal possible effect (MPE). MPE was calculated as follows: [formula] Pre-operation cut-off value is 15 grams. CCR-2 Antagonist C was evaluated in a multiple dosing study for 5 days. […] 50% paw withdrawal threshold following multiple dosing (3 mg/kg, PO, b.i.d.) of CCR-2 Antagonist C. Five days post spinal nerve ligation, the animals were tested before and 1 hr after dosing at 7 a.m. each day for 5 days. Data=Mean±SEM, n=10 rats. Efficacy: % MPE. […]

The subject of assay [4] is CFA-induced weight bearing deficit. The experiment in a line: Rat Complete Freund's Adjuvant (CFA) model, weight bearing. The format is in vivo, Sprague-Dawley rat. The method, then: Complete Freund's Adjuvant (CFA): Male Sprague-Dawley rats (Charles River) were injected with CFA (150 μl) intraplantar into their left paw. This study included 3 groups: (1) CCR-2 Antagonist C at 3 mg/kg bid started 2 hours before CFA injection, (2) vehicle group and (3) CCR-2 Antagonist C at 10 mg/kg given on day 3 post-CFA (rats received vehicle on day 0-2)(n=6 per group). Rats were dosed for 3.5 days bid. Before the morning dose and two hours after it, weight bearing and paw size were measured. On the final day of the study (day 3 post-CFA) in addition to weight bearing, paw pressure threshold was also evaluated at 2 hr post dose.

Take `CC(C)[C@]1(C(=O)N2CCc3ccc(C(F)(F)F)cc3C2)CCC(N[C@H]2CCOC[C@H]2C)C1` (some centres unmarked) [CCR-2 Antagonist A]: the “effect in the formalin test versus vehicle” value in assay [1] (1 mg/kg p.o.) is “No difference with the vehicle group”. In addition, in assay [1] (3 mg/kg p.o.), the “decrease of pain behavior in the formalin test” value is 50% and the “effect on phase 2 times of the formalin test” value is reported as “significantly decreased”. For the same molecule, the “effect on phase 2 times of the formalin test” value in assay [1] (30 mg/kg p.o.) was “significantly decreased”. Besides, in assay [1] (p.o., phase 1), the “effect on phase 1 of the formalin test” value is reported as “no effect”.
On to `CO[C@H]1COCC[C@H]1NC1CC[C@@](C(=O)N2CCc3ncc(C(F)(F)F)cc3C2)(C(C)C)C1` (some centres unmarked) [CCR-2 Antagonist B], for which the entries for the “decrease of phase 2 of the formalin test” value in assay [1] (10 mg/kg) and in assay [1] (30 mg/kg) were 20% and 30%, respectively. The “decrease of pain behavior in the formalin test” value in assay [1] (30 mg/kg p.o.) turned out to be 30%.
As to `CC(C)[C@]1(C(=O)N2CCc3ncc(C(F)(F)F)cc3C2)CC[C@@H](NC2CCOC[C@H]2C)C1` (some centres unmarked) [CCR-2 Antagonist C], the “anti-allodynic effect (50% paw withdrawal threshold) of co-injection with MCP-1” value in assay [2] (20 μg/rat via intrathecal catheter with MCP-1 750 ng/rat, day 4, 7, 10 and 11) is given as “partial preemptive anti-allodynic effect”. In addition, the “effect of co-injection with MCP-1 on development of mechanical allodynia” value in assay [2] (intrathecal co-injection with MCP-1) was “inhibited and delayed the development of mechanical allodynia”. In assay [3] (3 mg/kg PO b.i.d. for 5 days), the “efficacy in multiple dosing study (50% paw withdrawal threshold)” value is “significant efficacy”. Further, the “Efficacy: % MPE, day from which efficacy is significant” value in assay [3] (3 mg/kg PO b.i.d., tested before and 1 hr after dosing each day for 5 days) is recorded as “Significant efficacy was observed starting at day 3”. Also, the “effect on weight bearing” value in assay [4] (3 mg/kg bid, day 2 and 3) is “significantly reversed weight bearing”. The “effect on weight bearing on the affected limb” value in assay [4] (10 mg/kg, day 3) is reported as “significantly reversed weight bearing”.

(Values after patent publication US20060205761A1, “Ccr-2 antagonists for treatment of neuropathic pain” (priority 2003, published 2006).)
